According to patent publication US5661165A, “((4-phenyl-1,2,5-thiadiazol-3-yl)oxy)methyl ester thiocyanic acid compounds, compositions containing them and their use as antimicrobial and marine antifouling agents” (The Dow Chemical Company, priority 1996, dated 1997):
≈ marks a conversion by molar mass, not a printed value. Where two headings read alike, the source gives them in different places.

Key:
Candida albicans (Ca) = assay: MIC against yeast/fungi (malt yeast agar); assay type: cell-based, Candida albicans ATCC 10231; conditions: 30° C., yeast read after 48 h, read-out: Minimum Inhibitory Concentration, Ca
Experimental: (§1) The antimicrobial activity of the compounds of the present invention is set forth as the minimum inhibitory concentration (MIC) for the active compounds and is determined for nine (9) bacteria, using nutrient agar, and seven (7) yeast and fungi, using malt yeast agar. This determination is conducted using a one percent solution of the test compound prepared in a mixture of acetone and water.
(§2) Malt yeast agar is prepared by adding 3 g yeast extract and 45 g malt agar per liter of deionized water. The specific agar is dispensed in 30 mL aliquots into 25×200 mm test tubes, capped and autoclaved for 15 minutes at 115° C.
(§3) The test tubes containing the agar are cooled in a water bath until the temperature of the agar is 48° C. Then, an appropriate amount of the one percent solution of the test compound is added (except in the controls where no compound is added) to the respective test tubes so that the final concentrations are 500, 250, 100, 50, 25, 10, 5, 2.5, 1.0 and zero parts per million of the test compound in the agar, thus having a known concentration of test compound dispersed therein. The contents of the test tubes are then transferred to respective petri plates. After drying for 24 hours, the petri plates containing nutrient agar are inoculated with bacteria and those containing malt yeast agar are inoculated with yeast and fungi.
(§4) The inoculation with the yeast and fungi is accomplished as follows. Cultures of yeast and fungi are incubated for seven days on malt yeast agar at 30° C. These cultures are used to prepare suspensions by the following procedure. A suspension of each organism is prepared by adding 10 mL of sterile saline and 10 microliters of octylphenoxy polyethoxy ethanol to the agar slant of yeast or fungi. The sterile saline/octylphenoxy polyethoxy ethanol solution is then agitated with a sterile swab to suspend the microorganism grown on the slant. Each resulting suspension is diluted into sterile saline (1 part suspension to 9 parts sterile saline). Aliquots of these dilutions are placed in individual wells of Steer's Replicator and petri plates inoculated as previously described. The petri plates are incubated at 30° C. and read after 48 hours for yeast and 72 hours for fungi.
(§5) Table I lists the bacteria, yeast and fungi used in the MIC test described above along with their respective American Type Culture Collection (ATCC) identification numbers.

[1] = test system: Staphylococcus aureus (Sa); assay: MIC against bacteria (nutrient agar); assay type: cell-based, Staphylococcus aureus ATCC 6538; conditions: 30° C., 48 h, read-out: Minimum Inhibitory Concentration, Sa
[2] = test system: Klebsiella pneumoniae (Kp); assay: MIC against bacteria (nutrient agar); assay type: cell-based, Klebsiella pneumoniae ATCC 8308; conditions: 30° C., 48 h, read-out: Minimum Inhibitory Concentration, Kp
Escherichia coli (Ec) = assay: MIC against bacteria (nutrient agar); assay type: cell-based, Escherichia coli ATCC 11229; conditions: 30° C., 48 h, read-out: Minimum Inhibitory Concentration, Ec
[3] = test system: Pencillium chrysogenum (Pc); assay: MIC against yeast/fungi (malt yeast agar); assay type: cell-based, Pencillium chrysogenum ATCC 9480; conditions: 30° C., fungi read after 72 h, read-out: Minimum Inhibitory Concentration, Pc
Experimental: as §1, §2, §3, §4, §5

[4] = test system: Psuedomonas aeruginosa (Pa); assay: MIC against bacteria (nutrient agar); assay type: cell-based, Psuedomonas aeruginosa ATCC 10145; conditions: 30° C., 48 h, read-out: Minimum Inhibitory Concentration, Pa
Experimental: as §1
Nutrient agar is prepared at pH 6.8, representing a neutral medium, and at pH 8.2, representing an alkaline medium. The nutrient agars are prepared by adding 23 g of nutrient agar to one-liter of deionized water. In addition, the alkaline medium is prepared by adjusting a 0.04M solution of N-[tris-(hydroxymethyl)methyl]-glycine buffered deionized water with concentrated sodium hydroxide to a pH of 8.5.
as §3
The inoculation with bacteria is accomplished by using the following procedure. Twenty-four hour-cultures of each of the bacteria are prepared by incubating the respective bacteria in tubes containing nutrient broth for 24 hours at 30° C. in a shaker. Dilutions of each of the 24 hour-cultures are made so that nine separate suspensions (one for each of the nine test bacteria) are made, each containing 10^8 colony forming units (CFU) per mL of suspension of a particular bacteria. Aliquots of 0.3 mL of each of the bacterial suspensions are used to fill the individual wells of Steer's Replicator. For each microbial suspension, 0.3 mL was used to fill three wells (i.e., three wells of 0.3 mL each) so that for the nine different bacteria, 27 wells are filled. The Steer's Replicator is then used to inoculate both the neutral and alkaline pH nutrient agar petri plates.
The inoculated petri plates are incubated at 30° C. for 48 hours and then read to determine if the test compound which is incorporated into the agar prevented growth of the respective bacteria.
as §5

Bacillus subtilis (Bs) = assay: MIC against bacteria (nutrient agar); assay type: cell-based, Bacillus subtilis ATCC 8473; conditions: 30° C., 48 h, read-out: Minimum Inhibitory Concentration, Bs
[5] = test system: Saccharomyces cerevisiae (Sc); assay: MIC against yeast/fungi (malt yeast agar); assay type: cell-based, Saccharomyces cerevisiae ATCC 4105; conditions: 30° C., yeast read after 48 h, read-out: Minimum Inhibitory Concentration, Sc
Experimental: as §1, §2, §3, §4, §5

Trichoderma viride (Tv) = assay: MIC against yeast/fungi (malt yeast agar); assay type: cell-based, Trichoderma viride ATCC 8678; conditions: 30° C., fungi read after 72 h, read-out: Minimum Inhibitory Concentration, Tv
Experimental: as §1, §2, §3, §4, §5

[6] = test system: Salmonella choleraesuis (Sc); assay: MIC against bacteria (nutrient agar); assay type: cell-based, Salmonella choleraesuis ATCC 10708; conditions: Salmonella enterica, 30° C., 48 h, read-out: Minimum Inhibitory Concentration, Sc
[7] = test system: Aureobasidium pullulan (Ap); assay: MIC against yeast/fungi (malt yeast agar); assay type: cell-based, Aureobasidium pullulan ATCC 16622; conditions: 30° C., yeast 48 h / fungi 72 h, read-out: Minimum Inhibitory Concentration, Ap
Experimental: as §1, §2, §3, §4, §5

[8] = test system: Psuedomonas aeruginosa (PRD-10); assay: MIC against bacteria (nutrient agar); assay type: cell-based, Psuedomonas aeruginosa ATCC 15442; conditions: 30° C., 48 h, read-out: Minimum Inhibitory Concentration, PRD
Fusarium oxysporum (Fo) = assay: MIC against yeast/fungi (malt yeast agar); assay type: cell-based, Fusarium oxysporum ATCC 48112; conditions: 30° C., fungi read after 72 h, read-out: Minimum Inhibitory Concentration, Fo
Experimental: as §1, §2, §3, §4, §5

[9] = test system: Enterobacter aerogenes (Ea); assay: MIC against bacteria (nutrient agar); assay type: cell-based, Enterobacter aerogenes ATCC 13048; conditions: Klebsiella aerogenes, 30° C., 48 h, read-out: Minimum Inhibitory Concentration, Ea
Aperigillus niger (An) = assay: MIC against yeast/fungi (malt yeast agar); assay type: cell-based, Aperigillus niger ATCC 16404; conditions: 30° C., fungi read after 72 h, read-out: Minimum Inhibitory Concentration, An
Experimental: as §1, §2, §3, §4, §5

Proteus vulgaris (PV) = assay: MIC against bacteria (nutrient agar); assay type: cell-based, Proteus vulgaris ATCC 881; conditions: 30° C., 48 h, read-out: Minimum Inhibitory Concentration, Pv
marine organisms = assay: Marine antifouling rating on test panels exposed to the marine environment
Experimental: Test panels are prepared from clear, rigid polyvinyl chloride film that is 0.381×10^-3 m thick and has one textured surface. The test panels are 0.1524 m by 0.1524 m squares that have 0.00635 m holes punched at corners on 0.127 m centers. A 0.102 square template, with a 0.067 m diameter hole at the center, is attached to the center of the textured surface of the test panels.
The candidate marine antifoulant compound (1.0 g) is stirred into a resinous latex binder (9.0 g). A portion of the compound/binder mixture (1.5 g) is added to the center of the test panel and uniformly spread over the circular area inside the template.
Water is added dropwise as needed to properly spread the compound/binder mixture. The template prevents the compound/binder mixture from spreading beyond the uncovered area. The test panel is allowed to sit for between 10 to 30 minutes until the edge of the spread compound/binder mixture has dried. The template is then removed. The test panel is then allowed to dry for 8 to 12 hours at room temperature.
Two test panels are prepared for each candidate marine antifoulant compound. Two control test panels are also prepared by only treating with the resinous latex binder. One test panel of each candidate marine antifoulant compound is attached over a white background to the topside of an exposure support apparatus. The second test panel is attached over a black background to the underside of the exposure support apparatus. The exposure support apparatus is placed horizontally 0.0254 m under a marine surface with the white background topside facing up. […]
After being removed from the exposure support apparatus, each test panel is inspected and rated for marine organism growth on both the treated and untreated areas of the test panel. The marine organisms present on the treated and untreated areas are noted. The presence of algae spores and bacterial slime are noted but not included in rating each test panel. The test panels are rated on a scale from 10 (representing completely free of marine organism growth) to 0 (representing completely covered with marine organism growth).
In Table IV, the marine antifouling rating values for ((4-phenyl-1,2,5-thiadiazol-3-yl)oxy)methyl ester is set forth, as well as the ratings for control panels (with no marine antifouling compound and referred to as "Control").

[10] = 16 weeks, scale 10 (completely free of growth) to 0 (completely covered), control --

| SMILES | MIC (Candida albicans (Ca)) [µg/mL] | MIC ([1]; pH 6.8, nutrient agar) [µg/mL] | MIC ([1]; pH 8.2, nutrient agar) [µg/mL] | MIC ([2]; pH 6.8, nutrient agar) [µg/mL] | MIC ([2]; pH 8.2, nutrient agar) [µg/mL] | MIC (Escherichia coli (Ec); pH 6.8, nutrient agar) [µg/mL] | MIC (Escherichia coli (Ec); pH 8.2, nutrient agar) [µg/mL] | MIC [3] [µg/mL] | MIC ([4]; pH 6.8, nutrient agar) [µg/mL] | MIC ([4]; pH 8.2, nutrient agar) [µg/mL] | MIC (Bacillus subtilis (Bs); pH 6.8, nutrient agar) [µg/mL] | MIC (Bacillus subtilis (Bs); pH 8.2, nutrient agar) [µg/mL] | MIC [5] [µg/mL] | MIC (Trichoderma viride (Tv)) [µg/mL] | MIC ([6]; pH 6.8, nutrient agar) [µg/mL] | MIC ([6]; pH 8.2, nutrient agar) [µg/mL] | MIC [7] [µg/mL] | MIC ([8]; pH 6.8, nutrient agar) [µg/mL] | MIC ([8]; pH 8.2, nutrient agar) [µg/mL] | MIC (Fusarium oxysporum (Fo)) [µg/mL] | also measured |
| --- | --- | --- | --- | --- | --- | --- | --- | --- | --- | --- | --- | --- | --- | --- | --- | --- | --- | --- | --- | --- | --- |
| N#CSCOc1nsnc1-c1ccccc1 [Example I, ((4-Phenyl-1,2,5-thiadiazol-3-yl)oxy)methyl ester thiocyanic acid] | 2.5 (≈ 10 µM) | 25 (≈ 100 µM) | 25 (≈ 100 µM) | 500 (≈ 2010 µM) | 500 (≈ 2010 µM) | 500 (≈ 2010 µM) | > 500 | < 1 | > 500 | > 500 | < 10 | < 10 | 2.5 (≈ 10 µM) | 25 (≈ 100 µM) | 500 (≈ 2010 µM) | > 500 | < 1 | > 500 | > 500 | 5 (≈ 20.1 µM) | MIC ([9]; pH 6.8, nutrient agar): > 500 µg/mL; MIC ([9]; pH 8.2, nutrient agar): 500 µg/mL (≈ 2010 µM); MIC (Aperigillus niger (An)): < 1 µg/mL; MIC (Proteus vulgaris (PV); pH 6.8, nutrient agar): > 500 µg/mL; MIC (Proteus vulgaris (PV); pH 8.2, nutrient agar): 500 µg/mL (≈ 2010 µM); Marine Antifouling Rating, Bottom Panel (marine organisms; 6 weeks, scale 10 (completely free of growth) to 0 (completely covered), control 0): 9; Marine Antifouling Rating, Top Panel (marine organisms; 6 weeks, scale 10 (completely free of marine organism growth) to 0 (completely covered), control 6): 8; Marine Antifouling Rating, Bottom Panel (marine organisms; 10 weeks, scale 10 (completely free of growth) to 0 (completely covered), control 0): 7; Marine Antifouling Rating, Top Panel (marine organisms; 10 weeks, scale 10 (completely free of growth) to 0 (completely covered), control 3): 3; Marine Antifouling Rating, Bottom Panel (marine organisms; [10]): 2; Marine Antifouling Rating, Top Panel (marine organisms; [10]): 8 |
| N#CSCOc1nsnc1-c1cccc(Cl)c1 [II, ((4-(3-Chlorophenyl)-1,2,5-thiadiazol-3-yl)oxy)methyl ester thiocyanic acid] | 5 (≈ 17.6 µM) | < 10 | < 10 | 500 (≈ 1760 µM) | 500 (≈ 1760 µM) | 500 (≈ 1760 µM) | > 500 | < 1 | > 500 | > 500 | < 10 | < 10 | < 1 | 500 (≈ 1760 µM) | 500 (≈ 1760 µM) | > 500 | 2.5 (≈ 8.81 µM) | > 500 | > 500 | 10 (≈ 35.2 µM) | MIC ([9]; pH 6.8, nutrient agar): > 500 µg/mL; MIC ([9]; pH 8.2, nutrient agar): 500 µg/mL (≈ 1760 µM); MIC (Aperigillus niger (An)): 2.5 µg/mL (≈ 8.81 µM); MIC (Proteus vulgaris (PV); pH 6.8, nutrient agar): > 500 µg/mL; MIC (Proteus vulgaris (PV); pH 8.2, nutrient agar): 500 µg/mL (≈ 1760 µM) |
